# Results published in US12070502B2, “Process for reducing subvisible particles in a pharmaceutical formulation” (Regeneron Pharmaceuticals, Inc., priority 2014, dated 2024).
# Tests used:
# [1] = tested on: polysorbate degrading activity; assay: Reduction of polysorbate 20 degradation by lipase inhibitors; format: biochemical, CHO cell; settings: relative to control without inhibitor
# From the text: Polysorbate degradation activity was followed during HIC purification of an exemplar antibody produced in CHO cell culture. Partially purified CHO cell extract was applied to HIC (phenyl-sepharose). The flow-through, which contained almost all of the antibody, was collected and analyzed for polysorbate degradation activity. […] The HIC bound fraction was stripped from the HIC media and subsequently subjected to 100 kDa cut-off ultrafiltration/diafiltration. The unfiltered stripped fraction contained 9.9% polysorbate degradation activity, the filter permeate contained 1.3% polysorbate degradation activity and 5% antibody yield, and the filter retentate contained 7.4% polysorbate degradation activity and 95% antibody yield.
# Whether the polysorbate degrading activity is a lipase was tested by combining a lipase inhibitor with the polysorbate degrading activity fraction spiked with polysorbate 20. Table 12 presents the data showing a reduction of polysorbate degrading activity due to lipase inhibitor relative to the control (antibody with associated polysorbate degrading activity plus polysorbate 20 without lipase inhibitor).
# [2] = Stability of polysorbate 20 / polysorbate 80 esters in 150 mg/mL antibody (mAb1) formulation by mass spectroscopy; settings: for Percent Ester Degradation: 150 mg/mL antibody (mAb1) formulation; for percent remaining esters, Diester / percent remaining esters, Monoester: 150 mg/mL mAb1, 0.02% detergent, no HIC (process 3)
# Protocol: The stability of polysorbate 20 and polysorbate 80 in the 150 mg/mL antibody (mAb1) formulation containing 0.02% non-ionic detergent (polysorbate) prepared without HIC [process 3, see below and Table 8]) were compared, under the hypothesis that degradation of the fatty acid ester promotes protein instability and consequent SVP formation. The relative amounts of remaining esters (mono- and di-esters) were determined by mass spectroscopy.
# The rates of degradation of polysorbate 20 and polysorbate 80 formulated with 150 mg/mL antibody (mAb1) (as described above for Table 5) were determined under identical conditions using mass spectroscopy to measure relative amounts of free fatty acids and fatty acid esters. Percent ester degradation was determined using the following formula:
# [formula] wherein T0=time zero, T1=time at experimental condition (i.e., 2 months at 45° C.; 6 months at 5° C.), and POE=polyoxyethylene. […]
# The time point samples were analyzed using an anion exchange column (Oasis MAX column, 30 μm, 2.1 mm×20 mm; Waters Corporation, Milford, Mass.) followed at t=5 minutes with reverse phase chromatography (ACQUITY UPLC® BEH 130 C4 column, 1.7 μm, 2.1 mm×50 mm; Waters Corporation, Milford, Mass.). The reverse phase output was connected to a mass spectrometer (Thermo Q-Exactive mass spectrometer; Thermo Fisher Scientific, Inc., Wilmington, Del.). The chromatographic conditions are described in Table 11.
# The system was equilibrated with 99% mobile phase A (0.1% formic acid in water) at a flow rate of 0.1 mL/minute for 40 minutes prior to first injection. Water was used as a blank injection. The mass spectrometer parameters were as follows: mass range 150-2000 m/z; heater temperature at 250° C.; voltage 3.8 kv; sheath gas 40; auxiliary gas 10; capillary temperature 350° C.; and S-lens 50.
Molecule,Percent Reduction in Polysorbate 20 Degradation ([1]; 0.001 mM lipase inhibitor) [%],Percent Reduction in Polysorbate 20 Degradation ([1]; 0.01 mM lipase inhibitor) [%],Percent Reduction in Polysorbate 20 Degradation ([1]; 0.1 mM lipase inhibitor) [%],Percent Ester Degradation ([2]; 2 months at 45° C.) [%],"percent remaining esters, Diester ([2]; 2 months at 45° C.) [%]","percent remaining esters, Monoester ([2]; 2 months at 45° C.) [%]",Percent Ester Degradation ([2]; 6 months at 5° C.) [%],"percent remaining esters, Diester ([2]; 6 months at 5° C.) [%]","percent remaining esters, Monoester ([2]; 6 months at 5° C.) [%]",Percent Ester Degradation ([2]; Time zero) [%],"percent remaining esters, Diester ([2]; Time zero) [%]","percent remaining esters, Monoester ([2]; Time zero) [%]"
"CCCCOc1ccccc1B(O)O [2-Butoxyphenyl boronic acid, 2-butoxyphenylboronic acid]",0,28,0,–,–,–,–,–,–,–,–,–
"CCCCCCCCCCC[C@@H](C[C@@H]1OC(=O)[C@H]1CCCCCC)OC(=O)[C@H](CC(C)C)NC=O [Orlistat, orlistat]",0,27.8,67,–,–,–,–,–,–,–,–,–
"O=C(Nc1cccc(-c2ccccc2)c1)OC1CCCCC1 [URB602, [1-1′-biphenyl]-3-tl-carbamicacid cyclohexyl ester]",0,20,0,–,–,–,–,–,–,–,–,–
diethylumbelliferyl phosphate,48,100,>95,–,–,–,–,–,–,–,–,–
polysorbate 20 [PS20],–,–,–,63,10,30,22,30,60,0,100,100
